From ChEMBL document CHEMBL4715829, “Heterodimeric Rifampicin-Tobramycin conjugates break intrinsic resistance of Pseudomonas aeruginosa to doxycycline and chloramphenicol in vitro and in a Galleria mellonella in vivo model” (Eur J Med Chem, 2019)
Active and inactive are the calls of the source. The calls are words filed in the database; no cut-off is given here.

Experiments:
Pseudomonas aeruginosa [1] = test: Potentiation of chloramphenicol-induced antibacterial activity against Pseudomonas aeruginosa 100036 assessed as fold change in chloramphenicol MIC at 9.8 uM incubated for 18 hrs in presence of chloramphenicol by broth microdilution assay relative to control; assay type: functional
Pseudomonas aeruginosa [2] = test: Potentiation of doxycycline-induced antibacterial activity against Pseudomonas aeruginosa 260-97103 assessed as fold change in doxycycline MIC at 9.8 uM incubated for 18 hrs in presence of doxycycline by broth microdilution assay relative to control; assay type: functional
Pseudomonas aeruginosa [3] = test: Antibacterial activity against Pseudomonas aeruginosa 264-101354 assessed as fractional inhibitory concentration incubated for 18 hrs in presence of tigecycline by broth microdilution assay; assay type: functional
Pseudomonas aeruginosa [4] = test: Antibacterial activity against Pseudomonas aeruginosa 114228 assessed as fractional inhibitory concentration incubated for 18 hrs in presence of tigecycline by broth microdilution assay; assay type: functional
Pseudomonas aeruginosa [5] = test: Antibacterial activity against Pseudomonas aeruginosa 91433 assessed as potentiation of chloramphenicol-induced antibacterial activity by measuring chloramphenicol MIC at 9.8 uM incubated for 18 hrs in presence of chloramphenicol by broth microdilution assay (reference value: 8 ug/ml); assay type: functional
Pseudomonas aeruginosa [6] = test: Antibacterial activity against Pseudomonas aeruginosa 100036 assessed as potentiation of doxycycline-induced antibacterial activity by measuring doxycycline MIC at 9.8 uM incubated for 18 hrs in presence of doxycycline by broth microdilution assay (reference value: 64 ug/ml); assay type: functional
Pseudomonas aeruginosa [7] = test: Antibacterial activity against Pseudomonas aeruginosa 264-101354 assessed as potentiation of doxycycline-induced antibacterial activity by measuring doxycycline MIC at 9.8 uM incubated for 18 hrs in presence of doxycycline by broth microdilution assay (reference value: 64 ug/ml); assay type: functional
Pseudomonas aeruginosa [8] = test: Antibacterial activity against Pseudomonas aeruginosa 91433 assessed as fractional inhibitory concentration index incubated for 18 hrs in presence of rifampicin by broth microdilution assay; assay type: functional
Pseudomonas aeruginosa [9] = test: Potentiation of doxycycline-induced antibacterial activity against Pseudomonas aeruginosa 100036 assessed as fold change in doxycycline MIC at 9.8 uM incubated for 18 hrs in presence of doxycycline by broth microdilution assay relative to control; assay type: functional
HEK293 = test: Cytotoxicity against human HEK293 cells assessed as cell viability at 50 uM incubated for 48 hrs in presence of chloramphenicol by prestoblue assay; assay type: cell-based; conditions: hek293, 48 h
Pseudomonas aeruginosa [10] = test: Potentiation of chloramphenicol-induced antibacterial activity against Pseudomonas aeruginosa 260-97103 assessed as fold change in chloramphenicol MIC at 9.8 uM incubated for 18 hrs in presence of chloramphenicol by broth microdilution assay relative to control; assay type: functional
Pseudomonas aeruginosa [11] = test: Antibacterial activity against Pseudomonas aeruginosa 260-97103 assessed as fractional inhibitory concentration incubated for 18 hrs in presence of minocycline by broth microdilution assay; assay type: functional
Pseudomonas aeruginosa [12] = test: Antibacterial activity against Pseudomonas aeruginosa 264-101354 assessed as fractional inhibitory concentration index incubated for 18 hrs in presence of tigecycline by broth microdilution assay; assay type: functional
Pseudomonas aeruginosa [13] = test: Potentiation of chloramphenicol-induced antibacterial activity against Pseudomonas aeruginosa 262-101856 assessed as fold change in chloramphenicol MIC at 9.8 uM incubated for 18 hrs in presence of chloramphenicol by broth microdilution assay relative to control; assay type: functional
Pseudomonas aeruginosa [14] = test: Antibacterial activity against Pseudomonas aeruginosa 101243 assessed as potentiation of chloramphenicol-induced antibacterial activity by measuring chloramphenicol MIC at 9.8 uM incubated for 18 hrs in presence of chloramphenicol by broth microdilution assay (reference value: 1 ug/ml); assay type: functional
Pseudomonas aeruginosa [15] = test: Potentiation of doxycycycline-induced bactericidal activity against Pseudomonas aeruginosa PAO1 assessed as reduction in bacterial colonies at 4.9 to 9.8 microM incubated for upto 24 hrs in LB medium in presence of doxycycline followed by plating on agar plate and measured after 20 hrs by time-kill assay; assay type: functional, organism-based; conditions: dose 4.9-9.8 µM, time hrs <=44
Pseudomonas aeruginosa [16] = test: Antibacterial activity against wild type Pseudomonas aeruginosa PAO1 assessed as reduction in bacterial growth by measuring doxycycline MIC at 0.25 ug/ml incubated for 18 hrs in presence of doxycycline by broth microdilution assay (reference value: 16 ug/ml); assay type: functional; conditions: dose 0.25 µg/ml
Pseudomonas aeruginosa [17] = test: Antibacterial activity against Pseudomonas aeruginosa 259-96918 assessed as reduction in bacterial growth by measuring doxycycline MIC at 8 ug/ml incubated for 18 hrs in presence of doxycycline by broth microdilution assay (reference value: 32 ug/ml); assay type: functional; conditions: dose 8 µg/ml
Pseudomonas aeruginosa [18] = test: Antibacterial activity against Pseudomonas aeruginosa 264-101354 assessed as reduction in bacterial growth by measuring doxycycline MIC at 4 ug/ml incubated for 18 hrs in presence of doxycycline by broth microdilution assay (reference value: 64 ug/ml); assay type: functional; conditions: dose 4 µg/ml
Pseudomonas aeruginosa [19] = test: Antibacterial activity against Pseudomonas aeruginosa 100036 assessed as reduction in bacterial growth by measuring doxycycline MIC at 4 ug/ml incubated for 18 hrs in presence of doxycycline by broth microdilution assay (reference value: 64 ug/ml); assay type: functional; conditions: dose 4 µg/ml
Pseudomonas aeruginosa [20] = test: Antibacterial activity against Pseudomonas aeruginosa 260-97103 assessed as reduction in bacterial growth by measuring chloramphenicol MIC at 2 ug/ml incubated for 18 hrs in presence of chloramphenicol by broth microdilution assay (reference value: 128 ug/ml); assay type: functional; conditions: dose 2 µg/ml
Klebsiella pneumoniae = test: Potentiation of chloramphenicol-induced antibacterial activity against Klebsiella pneumoniae ATCC 16381 assessed as fold change in chloramphenicol MIC at 7.6 uM incubated for 18 hrs in presence of chloramphenicol by broth microdilution assay relative to control; assay type: functional
Pseudomonas aeruginosa [21] = test: Potentiation of chloramphenicol-induced antibacterial activity against Pseudomonas aeruginosa 91433 assessed as fold change in chloramphenicol MIC at 7.6 uM incubated for 18 hrs in presence of chloramphenicol by broth microdilution assay relative to control; assay type: functional
Acinetobacter baumannii = test: Potentiation of doxycycline-induced antibacterial activity against Acinetobacter baumannii ATCC 17978 assessed as fold change in doxycycline MIC at 7.6 uM incubated for 18 hrs in presence of doxycycline by broth microdilution assay relative to control; assay type: functional
Pseudomonas aeruginosa [22] = test: Potentiation of chloramphenicol-induced antibacterial activity against Pseudomonas aeruginosa 114228 assessed as fold change in chloramphenicol MIC at 7.6 uM incubated for 18 hrs in presence of chloramphenicol by broth microdilution assay relative to control; assay type: functional
Pseudomonas aeruginosa [23] = test: Potentiation of chloramphenicol-induced antibacterial activity against Pseudomonas aeruginosa 264-101354 assessed as fold change in chloramphenicol MIC at 7.6 uM incubated for 18 hrs in presence of chloramphenicol by broth microdilution assay relative to control; assay type: functional
Enterobacter cloacae = test: Potentiation of doxycycline-induced antibacterial activity against Enterobacter cloacae ATCC 117029 assessed as fold change in doxycycline MIC at 7.6 uM incubated for 18 hrs in presence of doxycycline by broth microdilution assay relative to control; assay type: functional
Pseudomonas aeruginosa [24] = test: Potentiation of doxycycline-induced antibacterial activity against Pseudomonas aeruginosa 260-97103 assessed as fold change in doxycycline MIC at 7.6 uM incubated for 18 hrs in presence of doxycycline by broth microdilution assay relative to control; assay type: functional
Pseudomonas aeruginosa [25] = test: Antibacterial activity against Pseudomonas aeruginosa 264-101354 assessed as potentiation of doxycycline-induced antibacterial activity by measuring doxycycline MIC at 7.6 uM incubated for 18 hrs in presence of doxycycline by broth microdilution assay (reference value: 64 ug/ml); assay type: functional

CO[C@H]1/C=C/O[C@@]2(C)Oc3c(C)c(O)c4c(O)c(c(/C=N/N5CCN(Cc6cn(CCCCCCO[C@@H]7[C@@H](O[C@H]8O[C@H](CO)[C@@H](O)[C@H](N)[C@H]8O)[C@H](N)C[C@H](N)[C@H]7O[C@H]7O[C@H](CN)[C@@H](O)C[C@H]7N)nn6)CC5)c(O)c4c3C2=O)NC(=O)/C(C)=C\C=C\[C@H](C)[C@H](O)[C@@H](C)[C@@H](O)[C@@H](C)[C@H](OC(C)=O)[C@@H]1C.Cl.Cl.Cl.Cl.Cl
fold change (FC) (Pseudomonas aeruginosa [1]): 4
fold change (FC) (Pseudomonas aeruginosa [2]): 4
FIC (Pseudomonas aeruginosa [3]): 0.063
FIC (Pseudomonas aeruginosa [4]): <0.031
MIC (Pseudomonas aeruginosa [5]): 2 µg/mL
MIC (Pseudomonas aeruginosa [6]): 1 µg/mL
MIC (Pseudomonas aeruginosa [7]): 0.125 µg/mL
fractional inhibitory concentration index (FICI) (Pseudomonas aeruginosa [8]): 1.13
fold change (FC) (Pseudomonas aeruginosa [9]): 4
Activity (HEK293): Non-Toxic
fold change (FC) (Pseudomonas aeruginosa [10]): 4
FIC (Pseudomonas aeruginosa [11]): <0.125
fractional inhibitory concentration index (FICI) (Pseudomonas aeruginosa [12]): 0.19
fold change (FC) (Pseudomonas aeruginosa [13]): 4
MIC (Pseudomonas aeruginosa [14]): 0.125 µg/mL
Activity (Pseudomonas aeruginosa [15]): Active

NC[C@H]1O[C@H](O[C@H]2[C@H](O)[C@@H](O[C@H]3O[C@H](CO)[C@@H](O)[C@H](N)[C@H]3O)[C@H](N)C[C@@H]2N)[C@H](N)C[C@@H]1O [TOBRAMYCIN]
MIC (Pseudomonas aeruginosa [16]): 8 µg/mL
MIC (Pseudomonas aeruginosa [17]): 32 µg/mL

CO[C@H]1/C=C/O[C@@]2(C)Oc3c(C)c(O)c4c(O)c(c(/C=N/N5CCN(C)CC5)c(O)c4c3C2=O)NC(=O)/C(C)=C\C=C\[C@H](C)[C@H](O)[C@@H](C)[C@@H](O)[C@@H](C)[C@H](OC(C)=O)[C@@H]1C [RIFAMPIN]
MIC (Pseudomonas aeruginosa [18]): 32 µg/mL
MIC (Pseudomonas aeruginosa [19]): 64 µg/mL
MIC (Pseudomonas aeruginosa [20]): 128 µg/mL

CO[C@H]1/C=C/O[C@@]2(C)Oc3c(C)c(O)c4c(O)c(c(/C=N/N5CCN(Cc6cn(CCCCCCCCCCCCO[C@@H]7[C@@H](O[C@H]8O[C@H](CO)[C@@H](O)[C@H](N)[C@H]8O)[C@H](N)C[C@H](N)[C@H]7O[C@H]7O[C@H](CN)[C@@H](O)C[C@H]7N)nn6)CC5)c(O)c4c3C2=O)NC(=O)/C(C)=C\C=C\[C@H](C)[C@H](O)[C@@H](C)[C@@H](O)[C@@H](C)[C@H](OC(C)=O)[C@@H]1C.O=C(O)C(F)(F)F.O=C(O)C(F)(F)F.O=C(O)C(F)(F)F.O=C(O)C(F)(F)F.O=C(O)C(F)(F)F
fold change (FC) (Klebsiella pneumoniae): 0
fold change (FC) (Pseudomonas aeruginosa [21]): 4
fold change (FC) (Acinetobacter baumannii): 0
fold change (FC) (Pseudomonas aeruginosa [22]): 4
fold change (FC) (Pseudomonas aeruginosa [23]): 4
fold change (FC) (Enterobacter cloacae): 0
fold change (FC) (Pseudomonas aeruginosa [24]): 4
MIC (Pseudomonas aeruginosa [25]): 1 µg/mL
